Measurements: article PMC6429200, “Synthesis and Broad Antiviral Activity of Novel 2-aryl-isoindolin-1-ones towards Diverse Enterovirus A71 Clinical Isolates” (Molecules, 2019)
Several values for one entry are separate records, joined by “and”; a condition that tells them apart may be missing. Equal values may be shown once.

Columns and labels:
Format in all cases: cell-based, Enterovirus 71 (EV-A71)
[1] = tested on: four EV-A71 strains (BrCr, H, Shenzhen98, Jiangsu52); assay: CPE inhibition assay, summary over four EV-A71 strains
Protocol: An in-vitro antiviral assay was established using the Africa monkey kidney cell line Vero which was infected with different EV-A71 clinical isolates (BrCr, H, Shenzhen98 and Jiangsu52). A total of 24 synthetic compounds were initially screened in such an assay to determine their inhibitory effect on virus replication at 3-fold diluted concentrations serial (400~0.18 μM). The 50% effective concentration (EC50) of each compound was calculated according to its inhibitory rate values with the Reed–Muench method. The 50% cytotoxic concentration (CC50) was defined as the concentration that inhibited 50% cellular growth in comparison with the controls. The selectivity index (SI) was calculated as CC50/EC50. […] Generally, the EV-A71 H strain was less sensitive to most of the active compounds as compared to the other virus strains.
The anti-EV-A71 activity of compounds was determined by the CPE inhibition method. Briefly, cells (3 × 10^4 cells/well) were plated into 96-well culture plates for incubation for 24 h. The medium was then removed and cells were infected with EV-A71 with 100TCID50 (50% tissue culture infective doses) in serum-free medium for 1 h at 37 °C. Then, the unbound viruses were removed and various concentrations of compounds were supplemented and incubated for another 48 h. The EC50 was determined by the Reed–Muench method. The selectivity index was calculated as the ratio of CC50/EC50 [15].

[2] = tested on: EV-A71; assay: Time-of-addition assay (VP1 Western blot) in Vero cells
Protocol: In order to explore the inhibitory effect of compound A3 on the EV-A71 viral life cycle, EV-A71 viral protein VP1 was measured via Western blot when Vero cells were treated with compound A3 prior to, during, or after EV-A71 viral incubation (Figure 3). […] It is likely that compound A3 inhibits the EV-A71 replication by acting on the virus entry stage.
The antiviral activity of the tested compound was examined at different time periods prior to, during or after viral infection. Briefly, Vero cells (9 × 10^5 cells/well) were inoculated with EV-A71 (MOI = 1.0) at 37 °C for 1 h. The media with or without treatment were added during the periods of −24~0 h, −1~0 h, 0~10 h, 1~10 h, 2~10 h, 4~10 h, 6~10 h and 8~10 h. After each incubation period, the collected cells were washed with PBS, and then the viral protein was determined by Western blot.
Figure 3 Time-of-addition analysis of Vero cells with compound A3 treatment prior to, during or after EV-A71 infection. (A) Schematic illustration of experiment to determine which stage of EV-A71 viral cycle was inhibited by compound A3 in Vero cells. […] For all experiments, the collected cells were washed with PBS after 10 h post viral infection, and viral VP1 expression was determined via Western blot assay.

[3] = tested on: EV-A71 (H strain) VP1 protein; assay: Western blot of viral VP1 protein in infected Vero cells; conditions: H strain MOI = 0.1, 1 h infection then A3 for 24 h
Protocol: To further confirm the anti-EV-A71 activity, the expression levels of VP1 RNA and protein were determined. Vero cells were infected with the H strain of EV-A71 for 1 h followed by treatment with A3 of various concentrations for another 24 h. […] Meanwhile, the antiviral efficacy of A3 was also tested using viral titer reduction assays.
Vero cells (9 × 10^5 cells/well) were plated into 6-well culture plates for incubation for 16 h. The medium was removed and cells were infected with EV-A71 (H, MOI = 0.1). After 1 h, various concentrations of A3 were supplemented for incubation for another 24 h. The cells were lysed in the M-PER mammalian protein extraction reagent (Thermo, Rockford, IL, USA) containing halt protease inhibitor single-use cocktail (Thermo). The protein concentration was determined by the BCA reagents (Thermo). About 15 μg of proteins was denatured and applied to sodium dodecyl sulfate-polyacrylamide gel electrophoresis (SDS-PAGE). The electrophoresis products were transferred to a polyvinyl idenefluoride (PVDF) film and PVDF membranes were then incubated at room temperature with a specific primary antibody. […]
Figure 2 Compound A3 inhibited EV-A71 replication in vitro. […] Intracellular viral VP1 protein (A) and RNA (B) were determined by Western blot and qRT-PCR assays, respectively. […]

O=C1c2ccccc2CN1c1ccc(Cl)cc1 [Compound A3, 2-(4-chlorophenyl)isoindolin-1-one]
SI towards four EV-A71 strains ([1]; CC50/EC50, range over four strains): 168-199 and 98–199
IC50 ([1]; Enterovirus A, EV71 / EVA71, read-out: Anti-EV71 IC50): 1.29 to 1.53 µM
EC50 ([1]; Enterovirus A, EVA71, Vero, read-out: EC50 towards four EV-A71 strains): 1.23 to 1.76 µM
EC50 fold higher than pirodavir ([1]; relative to reference compound pirodavir): 2–4 fold
EV-A71 VP1 expression in Vero cells ([2]; A3 4 μM at 0, 1 and 2 h after infection (MOI = 1.0), cells collected 10 h post infection, not at the other time periods): significantly decreased
time-of-addition: effect of pretreatment ([2]; A3 added 24 or 1 h prior to infection): did not display any resistance to infection by EV-A71
time-of-addition: efficacy, addition after infection ([2]; A3 added at 1 or 2 h after EV-A71 infection): significant efficacy
time-of-addition: inhibitory activity, addition during inoculation ([2]; A3 added during the inoculation of the virus): maximum inhibitory activity
viral VP1 protein level [3]: decreased the levels of viral VP1 protein in a dose-dependent manner
